Usually IC50 stands for the concentration that gives 50% inhibition.

Assay [1] deals with A-375 cells. In words: Inhibition of cell proliferation (MTS), A-375 cells. It is filed as cell-based. The following applies: A-375 cells, 3000 cells/well, 72 h, MTS, absorbance 490 nm, read-out: A375 IC50. The protocol: (§1) MTS testing kit was purchased from Promega. The DMEM, RPMI-1640 and Fetal bovine serum were purchased from Gibco. Dimethyl sulfoxide (DMSO) was purchased from Sigma.
(§2) To investigate whether a compound is able to inhibit the activity of MEK in cells, a mechanism-based assay using A-375 and HT-29 cell was developed. In this assay, inhibition of MEK was detected by the inhibition of A-375 and HT-29 cells proliferation. A-375 and HT-29 cells were cultured in culture flasks to 40-80% confluence respectively in DMEM and RPMI-1640 plus 10% fetal bovine serum. Cells were collected and plated onto 96-well plates at desired cell density (A-375: 3000 cells/well; HT-29: 5000 cells/well). Plates were incubated overnight at 37° C., with 5% CO2 to adhere. Compounds were added to the plates. The final compound concentrations were […], 12.35, 4.12, 1.37, 0.46 and 0.15 nM, respectively. Place plates at 37° C., with 5% CO2 for 72 h. 10 μl MTS were added to each well and incubate the plates for exactly 2 hours. Absorbance was measured at 490 nm. […] was calculated using GraphPad Prism 5.0.

Assay [2] relates to HT-29 cells. In words: Inhibition of cell proliferation (MTS), HT-29 cells. It counts as cell-based. The conditions noted are these: HT-29 cells, 5000 cells/well, 72 h, MTS, absorbance 490 nm, read-out: HT29 IC50. The protocol: as §1, §2

Read-outs that look alike come from different tables or passages of the source.

Take `Cn1c(=O)c(F)c(Nc2ccc(I)cc2F)c2c(=O)n(CC(F)F)nc(-c3cccc(NS(=O)(=O)C4CC4)c3)c21` [Example 20, N-(3-(6-(2,2-difluoroethyl)-3-fluoro-4-(2-fluoro-4-iodophenylamino)-1-methyl-2,5-dioxo-1,2,5,6-tetrahydropyrido[2,3-d]pyridazin-8-yl)phenyl)cyclopropanesulfonamide]: the IC50 in assay [1] (Homo sapiens, A-375, 72 h) is 0.0064 µM; in assay [2] (Homo sapiens, HT-29, 72 h), 0.0077 µM.
On to `CC(=O)Nc1cccc(-c2nn(C)c(=O)c3c(Nc4ccc(I)cc4F)c(F)c(=O)n(C)c23)c1` [Example 21, N-(3-(3-fluoro-4-(2-fluoro-4-iodophenylamino)-1,6-dimethyl-2,5-dioxo-1,2,5,6-tetrahydropyrido[2,3-d]pyridazin-8-yl)phenyl)acetamide], for which the IC50 in assay [1] (Homo sapiens, A-375, 72 h) was 0.0039 µM; in assay [2] (Homo sapiens, HT-29, 72 h), < 0.001 µM.
On to `Cn1nc(-c2cccc(NS(C)(=O)=O)c2)c2c(c(Nc3ccc(I)cc3F)c(F)c(=O)n2C)c1=O` [Example 22, N-(3-(3-fluoro-4-(2-fluoro-4-iodophenylamino)-1,6-dimethyl-2,5-dioxo-1,2,5,6-tetrahydropyrido[2,3-d]pyridazin-8-yl)phenyl)methanesulfonamide], for which the half-inhibitory concentration (IC50) in assay [1] (Homo sapiens, A-375, 72 h) was < 0.001 µM; in assay [2] (Homo sapiens, HT-29, 72 h) it was < 0.001 µM.
In the case of `Cn1nc(-c2cccc(NS(=O)(=O)C3CC3)c2)c2c(c(Nc3ccc(I)cc3F)c(F)c(=O)n2C)c1=O` [Example 23, N-(3-(3-fluoro-4-(2-fluoro-4-iodophenylamino)-1,6-dimethyl-2,5-dioxo-1,2,5,6-tetrahydropyrido[2,3-d]pyridazin-8-yl)phenyl)cyclopropanesulfonamide], the IC50 was < 0.001 µM in assay [1] (Homo sapiens, A-375, 72 h) and < 0.001 µM in assay [2] (Homo sapiens, HT-29, 72 h).
Take `CCn1nc(-c2cccc(NC(C)=O)c2)c2c(c(Nc3ccc(I)cc3F)c(F)c(=O)n2C)c1=O` [Example 24, N-(3-(6-ethyl-3-fluoro-4-(2-fluoro-4-iodophenylamino)-1-methyl-2,5-dioxo-1,2,5,6-tetrahydropyrido[2,3-d]pyridazin-8-yl)phenyl)acetamide]: the IC50 in assay [1] (Homo sapiens, A-375, 72 h) turned out to be 0.0137 µM; in assay [2] (Homo sapiens, HT-29, 72 h), 0.0061 µM.
For `CCn1nc(-c2cccc(NS(C)(=O)=O)c2)c2c(c(Nc3ccc(I)cc3F)c(F)c(=O)n2C)c1=O` [Example 25, N-(3-(6-ethyl-3-fluoro-4-(2-fluoro-4-iodophenylamino)-1-methyl-2,5-dioxo-1,2,5,6-tetrahydropyrido[2,3-d]pyridazin-8-yl)phenyl)methanesulfonamide] the same measures were < 0.001 µM and < 0.001 µM.
Turning to `CCn1nc(-c2cccc(NS(=O)(=O)C(C)C)c2)c2c(c(Nc3ccc(I)cc3F)c(F)c(=O)n2C)c1=O` [Example 26, N-(3-(6-ethyl-3-fluoro-4-(2-fluoro-4-iodophenylamino)-1-methyl-2,5-dioxo-1,2,5,6-tetrahydropyrido[2,3-d]pyridazin-8-yl)phenyl)propane-2-sulfonamide], the IC50 was 0.0119 µM in assay [1] (Homo sapiens, A-375, 72 h) and < 0.001 µM in assay [2] (Homo sapiens, HT-29, 72 h).
Turning to `CCn1nc(-c2cccc(NS(=O)(=O)C3CC3)c2)c2c(c(Nc3ccc(I)cc3F)c(F)c(=O)n2C)c1=O` [Example 27, N-(3-(6-ethyl-3-fluoro-4-(2-fluoro-4-iodophenylamino)-1-methyl-2,5-dioxo-1,2,5,6-tetrahydropyrido[2,3-d]pyridazin-8-yl)phenyl)cyclopropanesulfonamide], the concentration for half-maximal inhibition (IC50) in assay [1] (Homo sapiens, A-375, 72 h) was < 0.001 µM; in assay [2] (Homo sapiens, HT-29, 72 h) it was < 0.001 µM.
Consider `C=CCn1nc(-c2cccc(NC(C)=O)c2)c2c(c(Nc3ccc(I)cc3F)c(F)c(=O)n2C)c1=O` [Example 28, N-(3-(6-allyl-3-fluoro-4-(2-fluoro-4-iodophenylamino)-1-methyl-2,5-dioxo-1,2,5,6-tetrahydropyrido[2,3-d]pyridazin-8-yl)phenyl)acetamide], for which the IC50 is 0.0016 µM in assay [1] (Homo sapiens, A-375, 72 h) and 0.0064 µM in assay [2] (Homo sapiens, HT-29, 72 h).
The matching figures for `C=CCn1nc(-c2cccc(NC(=O)CC)c2)c2c(c(Nc3ccc(I)cc3F)c(F)c(=O)n2C)c1=O` [Example 29, N-(3-(6-allyl-3-fluoro-4-(2-fluoro-4-iodophenylamino)-1-methyl-2,5-dioxo-1,2,5,6-tetrahydropyrido[2,3-d]pyridazin-8-yl)phenyl)propionamide]: 0.0512 µM and 0.105 µM.
For `C=CCn1nc(-c2cccc(NC(=O)C3CC3)c2)c2c(c(Nc3ccc(I)cc3F)c(F)c(=O)n2C)c1=O` [Example 30, N-(3-(6-allyl-3-fluoro-4-(2-fluoro-4-iodophenylamino)-1-methyl-2,5-dioxo-1,2,5,6-tetrahydropyrido[2,3-d]pyridazin-8-yl)phenyl)cyclopropanecarboxamide] the same measures were 0.0807 µM and 0.0767 µM.
For `C=CCn1nc(-c2cccc(NS(C)(=O)=O)c2)c2c(c(Nc3ccc(I)cc3F)c(F)c(=O)n2C)c1=O` [Example 31, N-(3-(6-allyl-3-fluoro-4-(2-fluoro-4-iodophenylamino)-1-methyl-2,5-dioxo-1,2,5,6-tetrahydropyrido[2,3-d]pyridazin-8-yl)phenyl)methanesulfonamide] the same measures were 0.0011 µM and 0.0074 µM.
Take `C=CCn1nc(-c2cccc(NS(=O)(=O)CC)c2)c2c(c(Nc3ccc(I)cc3F)c(F)c(=O)n2C)c1=O` [Example 32, N-(3-(6-allyl-3-fluoro-4-(2-fluoro-4-iodophenylamino)-1-methyl-2,5-dioxo-1,2,5,6-tetrahydropyrido[2,3-d]pyridazin-8-yl)phenyl)ethanesulfonamide]: the IC50 in assay [1] (Homo sapiens, A-375, 72 h) turned out to be 0.0362 µM; in assay [2] (Homo sapiens, HT-29, 72 h), 0.0127 µM.
As to `C=CCn1nc(-c2cccc(NS(=O)(=O)C(C)C)c2)c2c(c(Nc3ccc(I)cc3F)c(F)c(=O)n2C)c1=O` [Example 33, N-(3-(6-allyl-3-fluoro-4-(2-fluoro-4-iodophenylamino)-1-methyl-2,5-dioxo-1,2,5,6-tetrahydropyrido[2,3-d]pyridazin-8-yl)phenyl)propane-2-sulfonamide], the IC50 was 0.0126 µM in assay [1] (Homo sapiens, A-375, 72 h) and 0.0072 µM in assay [2] (Homo sapiens, HT-29, 72 h).
In the case of `C=CCn1nc(-c2cccc(NS(=O)(=O)C3CC3)c2)c2c(c(Nc3ccc(I)cc3F)c(F)c(=O)n2C)c1=O` [Example 34, N-(3-(6-allyl-3-fluoro-4-(2-fluoro-4-iodophenylamino)-1-methyl-2,5-dioxo-1,2,5,6-tetrahydropyrido[2,3-d]pyridazin-8-yl)phenyl)cyclopropanesulfonamide], the results for the half-inhibitory concentration (IC50) in assay [1] and in assay [2] were 0.0042 µM and 0.0046 µM, respectively.
`C=CCn1nc(-c2cccc(NC(=O)C(C)C)c2)c2c(c(Nc3ccc(I)cc3F)c(F)c(=O)n2C)c1=O` [Example 35, N-(3-(6-allyl-3-fluoro-4-(2-fluoro-4-iodophenylamino)-1-methyl-2,5-dioxo-1,2,5,6-tetrahydropyrido[2,3-d]pyridazin-8-yl)phenyl)isobutyramide]: the IC50 stood at 0.0263 µM in assay [1] (Homo sapiens, A-375, 72 h) and 0.0226 µM in assay [2] (Homo sapiens, HT-29, 72 h).
In the case of `C=CCn1nc(-c2cccc(NC(C)=O)c2)c2c(c(Nc3ccc(Br)cc3F)c(F)c(=O)n2C)c1=O` [Example 36, N-(3-(6-allyl-4-(4-bromo-2-fluorophenylamino)-3-fluoro-1-methyl-2,5-dioxo-1,2,5,6-tetrahydropyrido[2,3-d]pyridazin-8-yl)phenyl)acetamide], the IC50 in assay [1] (Homo sapiens, A-375, 72 h) came out at 0.341 µM; in assay [2] (Homo sapiens, HT-29, 72 h), 0.427 µM.
For `C=CCn1nc(-c2cccc(NS(C)(=O)=O)c2)c2c(c(Nc3ccc(Br)cc3F)c(F)c(=O)n2C)c1=O` [Example 37, N-(3-(6-allyl-4-(4-bromo-2-fluorophenylamino)-3-fluoro-1-methyl-2,5-dioxo-1,2,5,6-tetrahydropyrido[2,3-d]pyridazin-8-yl)phenyl)methanesulfonamide] the same measures were 0.0324 µM and 0.0427 µM.
The matching figures for `CC(=O)Nc1cccc(-c2nn(CC(O)CO)c(=O)c3c(Nc4ccc(I)cc4F)c(F)c(=O)n(C)c23)c1` (stereo not drawn) [Example 40, N-(3-(6-(2,3-dihydroxypropyl)-3-fluoro-4-(2-fluoro-4-iodophenylamino)-1-methyl-2,5-dioxo-1,2,5,6-tetrahydropyrido[2,3-d]pyridazin-8-yl)phenyl)acetamide]: 0.0025 µM and 0.0019 µM.
Take `CCC(=O)Nc1cccc(-c2nn(CC(O)CO)c(=O)c3c(Nc4ccc(I)cc4F)c(F)c(=O)n(C)c23)c1` (stereo not drawn) [Example 41, N-(3-(6-(2,3-dihydroxypropyl)-3-fluoro-4-(2-fluoro-4-iodophenylamino)-1-methyl-2,5-dioxo-1,2,5,6-tetrahydropyrido[2,3-d]pyridazin-8-yl)phenyl)propionamide]: the half-maximal inhibitory concentration (IC50) in assay [1] (Homo sapiens, A-375, 72 h) worked out at 0.399 µM; in assay [2] (Homo sapiens, HT-29, 72 h), 0.315 µM.
The matching figures for `Cn1c(=O)c(F)c(Nc2ccc(I)cc2F)c2c(=O)n(CC(O)CO)nc(-c3cccc(NC(=O)C4CC4)c3)c21` (stereo not drawn) [Example 42, N-(3-(6-(2,3-dihydroxypropyl)-3-fluoro-4-(2-fluoro-4-iodophenylamino)-1-methyl-2,5-dioxo-1,2,5,6-tetrahydropyrido[2,3-d]pyridazin-8-yl)phenyl)cyclopropanecarboxamide]: 0.18 µM and 0.113 µM.

For the origin of these results see patent US10022374B2, “Certain protein kinase inhibitors” (Shanghai Fochon Pharmaceutical Co., Ltd., priority 2013, dated 2018).
